In patent US11607426B2, “Method of targeting oncolytic viruses to tumors” (UNIVERSITY OF SOUTH FLORIDA, priority 2016, dated 2023):
Where two headings read alike, the source gives them in different places.

Columns and labels:
[1] = tested on: RSV; experiment: RSV infection (viral titers) in 1-MT or vitamin K3 treated human MSCs; format: cell-based, respiratory syncytial virus; conditions: human MSCs treated with 1-MT or vitamin K3
[2] = tested on: PBMCs; format: cell-based, human
[3] = biological target: IDO (Homo sapiens, UniProt P14902); format: cell-based; conditions: RSV-infected MSCs treated with 1 mM 1-MT or 10 μM vitamin K3
Sequence of IDO (P14902 whole entry): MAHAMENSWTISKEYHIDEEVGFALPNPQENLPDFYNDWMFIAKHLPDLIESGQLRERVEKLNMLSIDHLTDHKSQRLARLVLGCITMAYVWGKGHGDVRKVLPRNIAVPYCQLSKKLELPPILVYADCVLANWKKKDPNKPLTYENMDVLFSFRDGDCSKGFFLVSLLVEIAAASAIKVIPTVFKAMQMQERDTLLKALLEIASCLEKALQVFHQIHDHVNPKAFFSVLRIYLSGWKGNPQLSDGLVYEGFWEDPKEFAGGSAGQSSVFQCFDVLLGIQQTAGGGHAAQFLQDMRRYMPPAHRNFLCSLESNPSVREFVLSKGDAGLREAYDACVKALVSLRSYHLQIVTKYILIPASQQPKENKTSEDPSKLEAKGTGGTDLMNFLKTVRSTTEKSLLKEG

[4] = tested on: hMSCs; experiment: Boyden chamber invasion assay, hMSC migration towards LLC1 cells; conditions: media containing 1MT, 24 hours coculture
Description: Migrated MSCs were counted after 24 h.
To test the effect of 1-MT on the migratory capacity of hMSCs the inventors used a Boyden chamber invasion assay with Lewis lung carcinoma (LLC1) cells in the bottom chamber to produce trophic factors. MSCs were seeded on the top of a matrigel layer above a PET membrane with 8.0 μm pores (BD Bioscience) and treated with control MSC media or media containing 1MT. Cells were cocultured for 24 hours before fixation in 4% paraformaldehyde in PBS. Upper matrigel layer was removed by cue tip and migrant cells were visualized and counted by Giemsa staining.

CC1=CC(=O)c2ccccc2C1=O [vitamin K3]
RSV infection as determined by viral titers [1]: did not reduce RSV infection
effect on inhibition of PBMC proliferation by RSV-infected MSC conditioned medium (CFSE dye dilution) ([2]; 1 mM 1-MT or 10 μM vitamin K3, PHA, 5 days, flow cytometry): abolished the negative effect on PBMC proliferation
kynurenine levels [3]: reduced kynurenine levels

Cn1cc(C[C@H](N)C(=O)O)c2ccccc21 [1-MT, 1-methyltryptophan]
migration of hMSC towards LLC1 cells [4]: did not inhibit migration
RSV infection as determined by viral titers [1]: did not reduce RSV infection
effect on inhibition of PBMC proliferation by RSV-infected MSC conditioned medium (CFSE dye dilution) [2]: abolished the negative effect on PBMC proliferation
